From ChEMBL document CHEMBL4130444, “1,4-Naphthoquinones as inhibitors of Itch, a HECT domain-E3 ligase, and tumor growth suppressors in multiple myeloma” (Eur J Med Chem, 2017)

Tests used:
HCT-116 = assay: Antiproliferative activity against human HCT116 cells incubated for 48 hrs by SRB assay; type: functional; conditions: HCT-116, 48 h
MDA-MB-231 = assay: Antiproliferative activity against human MDA-MB-231 cells incubated for 48 hrs by SRB assay; type: functional; conditions: MDA-MB-231, 48 h

Row | GI50 (HCT-116) [µM] | GI50 (MDA-MB-231) [µM] | SMILES
1 | > 10 | > 10 | O=C(Nc1ccc2[nH]ccc2c1)c1ccc(CNC2=C(Cl)C(=O)c3ccccc3C2=O)cc1
2 | > 10 | 8.9 | O=C(Nc1nc2ccccc2[nH]1)c1ccc(CNC2=C(Cl)C(=O)c3ccccc3C2=O)cc1
